According to patent US20020035061A1, “COMPOSITIONS AND METHODS FOR TREATING INFECTIONS USING CATIONIC PEPTIDES ALONE OR IN COMBINATION WITH ANTIBIOTICS” (priority 1996, published 2002):
Several values for one entry are separate records, joined by “and”; a condition that tells them apart may be missing. Equal entries are not always repeated. Where two headings read alike, the source gives them in different places.

Assays:
Assay in all cases: microbe, parasite or virus in culture
Format in all cases: cell-based
[1] = test system: microorganisms with acquired resistance; settings: for Peptide MIC: in µg/mL
[2] = test system: inherently resistant microorganisms; settings: for MIC: Staphylococcus aureus, MRSA
[3] = test system: bacterial isolates; settings: for FIC: combination with Ampicillin
[4] = Acinetobacter calcoaceticus, read-out: Piperacillin MIC Alone, A. calcoaceticus 2
[5] = Acinetobacter calcoaceticus, read-out: Piperacillin MIC Alone, A. calcoaceticus 7
[6] = Enterobacter cloacae, read-out: Piperacillin MIC Alone, E. cloacae 9
[7] = Enterobacter cloacae, read-out: Piperacillin MIC Alone, E. cloacae 10
[8] = Enterobacter cloacae, read-out: Piperacillin MIC Alone, E. cloacae 13
[9] = Enterobacter cloacae, read-out: Piperacillin MIC Alone, E. cloacae 16
[10] = Enterobacter cloacae, read-out: Piperacillin MIC Alone, E. cloacae 17
[11] = Escherichia coli, read-out: Piperacillin MIC Alone, E. coli 1
[12] = Haemophilus influenzae, read-out: Piperacillin MIC Alone, H. influenzae 1
[13] = Pseudomonas aeruginosa, read-out: Piperacillin MIC Alone, P. aeruginosa 7
[14] = Pseudomonas aeruginosa, read-out: Piperacillin MIC Alone, P. aeruginosa 15
[15] = Pseudomonas aeruginosa, read-out: Piperacillin MIC Alone, P. aeruginosa 22
[16] = Serratia marcescens, read-out: Piperacillin MIC Alone, S. marcescens SB1
[17] = Stenotrophomonas maltophilia, read-out: Piperacillin MIC Alone, S. maltophilia 2
[18] = Stenotrophomonas maltophilia, read-out: Piperacillin MIC Alone, S. maltophilia 3
[19] = Stenotrophomonas maltophilia, read-out: Piperacillin MIC Alone, S. maltophilia 11
[20] = Stenotrophomonas maltophilia, read-out: Piperacillin MIC Alone, S. maltophilia 14
[21] = Stenotrophomonas maltophilia, read-out: Piperacillin MIC Alone, S. maltophilia 34
[22] = Stenotrophomonas maltophilia, read-out: Piperacillin MIC Alone, S. maltophilia 35

COc1cccc(OC)c1C(=O)N[C@@H]1C(=O)N2[C@@H]1SC(C)(C)[C@@H]2C(=O)O [Methicillin]
64 µg/mL: MIC ([1]; Staphylococcus haemolyticus, read-out: MIC alone (antibiotic agent), S. haemolyticus)
0.25 µg/mL: MIC comb. (antibiotic agent) ([1]; S. haemolyticus, with MBI 26)

CCN1CCN(C(=O)N[C@@H](C(=O)N[C@@H]2C(=O)N3[C@@H]2SC(C)(C)[C@@H]3C(=O)O)c2ccccc2)C(=O)C1=O [Piperacillin]
128 µg/mL: MIC [1, 8] | MIC ([1]; Pseudomonas aeruginosa, read-out: MIC alone (antibiotic agent), P. aeruginosa) | MIC [1, 13] | MIC ([1]; Pseudomonas aeruginosa, read-out: Piperacillin MIC Alone, P. aeruginosa 23) | MIC ([1]; Pseudomonas aeruginosa, read-out: Piperacillin MIC Alone, P. aeruginosa 26) | Piperacillin MIC Alone ([1]; S. maltophilia 4) | MIC ([1]; Staphylococcus aureus, read-out: MIC alone (antibiotic agent), S. aureus) | MIC [1, 20] | MIC ([2]; read-out: Piperacillin MIC Alone, S. aureus MRSA) | Piperacillin MIC Alone ([3]; A. calcoaceticus 3) | MIC [3, 8] | Piperacillin MIC Alone ([3]; P. aeruginosa 7) | Piperacillin MIC Alone ([3]; S. aureus SB3MRSA) | MIC ([3]; Staphylococcus aureus, MRSA, read-out: Piperacillin MIC Alone, S. aureus 19 MRSA) | MIC ([3]; Staphylococcus aureus, read-out: Piperacillin MIC Alone, S. aureus SB2MRSA) | MIC [3, 18] | MIC [3, 20]
> 512 µg/mL: MIC [1, 4] | MIC [1, 9] | MIC [1, 10] | MIC ([1]; Pseudomonas aeruginosa, read-out: Piperacillin MIC Alone, P. aeruginosa 24) | MIC ([1]; Stenotrophomonas maltophilia, read-out: MIC alone (antibiotic agent), S. maltophilia) | MIC [1, 21] | MIC ([1]; Stenotrophomonas maltophilia, read-out: Piperacillin MIC Alone, S. maltophilia 41) | MIC [3, 4] | MIC [3, 9] | MIC [3, 10] | MIC ([3]; Pseudomonas aeruginosa, read-out: Piperacillin MIC Alone, P. aeruginosa 28) | MIC [3, 21] | MIC ([3]; Stenotrophomonas maltophilia, read-out: Piperacillin MIC Alone, S. maltophilia 38) | MIC ([3]; Stenotrophomonas maltophilia, read-out: Piperacillin MIC Alone, S. maltophilia 40) | MIC ([3]; Stenotrophomonas maltophilia, read-out: Piperacillin MIC Alone, S. maltophilia 42)
4 µg/mL: Piperacillin MIC + Peptide ([2]; S. aureus MRSA, peptide MBI 11F3CN) | MIC ([2]; read-out: Piperacillin MIC + Peptide, S. aureus MRSA, peptide MBI 11F4CN) | MIC ([2]; read-out: Piperacillin MIC + Peptide, S. aureus MRSA, peptide MBI 29)
2 µg/mL: MIC ([2]; read-out: Piperacillin MIC + Peptide, S. aureus MRSA, peptide MBI 11D18CN) | MIC ([2]; read-out: Piperacillin MIC + Peptide, S. aureus MRSA, peptide MBI 11E3CN) | MIC ([2]; read-out: Piperacillin MIC + Peptide, S. aureus MRSA, peptide MBI 11F3CN)
32 µg/mL: MIC [1, 5] | Piperacillin MIC Alone ([1]; H. influenzae 1) | MIC [1, 17] | MIC [1, 19] | MIC [3, 5] | Piperacillin MIC Alone ([3]; H. influenzae 1) | Piperacillin MIC Alone ([3]; P. aeruginosa 41)
>512 µg/mL: Piperacillin MIC Alone ([1]; S. maltophilia 35)
> 256 µg/mL: MIC [1, 22] | MIC [3, 22]
> 128 µg/mL: MIC [1, 6] | MIC [1, 7] | MIC [1, 11] | MIC ([1]; Pseudomonas aeruginosa, read-out: Piperacillin MIC Alone, P. aeruginosa 12) | MIC [1, 14] | MIC [1, 15] | MIC ([3]; Enterobacter cloacae, read-out: Piperacillin MIC Alone, E. cloacae 6) | MIC [3, 6] | MIC [3, 7] | MIC [3, 11] | MIC [3, 13] | MIC [3, 14] | MIC [3, 15] | MIC ([3]; Staphylococcus aureus, MRSA, read-out: Piperacillin MIC Alone, S. aureus 11 MRSA) | MIC ([3]; Staphylococcus aureus, MRSA, read-out: Piperacillin MIC Alone, S. aureus 18 MRSA) | MIC ([3]; Staphylococcus aureus, read-out: Piperacillin MIC Alone, S. aureus SB3MRSA) | MIC ([3]; Stenotrophomonas maltophilia, read-out: Piperacillin MIC Alone, S. maltophilia 5) | MIC ([3]; Stenotrophomonas maltophilia, read-out: Piperacillin MIC Alone, S. maltophilia 6) | MIC ([3]; Stenotrophomonas maltophilia, read-out: Piperacillin MIC Alone, S. maltophilia 9) | MIC [3, 19] | MIC ([3]; Stenotrophomonas maltophilia, read-out: Piperacillin MIC Alone, S. maltophilia 13)
>128 µg/mL: Piperacillin MIC Alone ([1]; P. aeruginosa 7) | Piperacillin MIC Alone ([3]; S. aureus 19 MRSA)
0.5 µg/mL: MIC ([2]; read-out: Piperacillin MIC + Peptide, S. aureus MRSA, peptide MBI 11B7CN) | MIC ([2]; read-out: Piperacillin MIC + Peptide, S. aureus MRSA, peptide MBI 11G7CN) | MIC ([2]; read-out: Piperacillin MIC + Peptide, S. aureus MRSA, peptide MBI 21A2) | MIC ([2]; read-out: Piperacillin MIC + Peptide, S. aureus MRSA, peptide MBI 26) | MIC ([3]; Haemophilus influenzae, read-out: Piperacillin MIC Alone, H. influenzae 3) | MIC ([3]; Haemophilus influenzae, read-out: Piperacillin MIC Alone, H. influenzae SB1)
16 µg/mL: MIC comb. (antibiotic agent) ([1]; S. maltophilia, with MBI 26)
512 µg/mL: MIC ([3]; Pseudomonas aeruginosa, read-out: Piperacillin MIC Alone, P. aeruginosa 29)
>128 µg/mL and 256 µg/mL: Piperacillin MIC Alone ([1]; P. aeruginosa 23)
64 µg/mL: MIC ([1]; Enterobacter cloacae, read-out: Piperacillin MIC Alone, E. cloacae 19) | MIC [1, 12] | MIC comb. (antibiotic agent) ([1]; P. aeruginosa, with MBI 27) | MIC comb. (antibiotic agent) ([1]; P. aeruginosa, with MBI 29) | MIC comb. (antibiotic agent) ([1]; S. aureus, with MBI 27) | Piperacillin MIC Alone ([1]; S. maltophilia 2) | MIC [1, 16] | MIC [1, 18] | MIC ([1]; Stenotrophomonas maltophilia, read-out: Piperacillin MIC Alone, S. maltophilia 4) | MIC ([3]; Acinetobacter calcoaceticus, read-out: Piperacillin MIC Alone, A. calcoaceticus 3) | MIC ([3]; Acinetobacter calcoaceticus, read-out: Piperacillin MIC Alone, A. calcoaceticus 8) | MIC [3, 12] | MIC ([3]; Pseudomonas aeruginosa, read-out: Piperacillin MIC Alone, P. aeruginosa 32) | MIC ([3]; Pseudomonas aeruginosa, read-out: Piperacillin MIC Alone, P. aeruginosa 41) | MIC [3, 16] | MIC [3, 17]

GKPRPYSPIPTSPRPIRY [MBI 31]
0.125: Peptide MIC ([1]; S. aureus, combination with Erythromycin)
1.00: FIC ([3]; S. haemolyticus SH8597)
0.27: FIC ([3]; S. epidermidis SH8575)
0.52: FIC ([3]; S. epidermidis SE8416) | FIC ([3]; S. haemolyticus SA7818) | FIC ([3]; S. haemolyticus SA7834)
0.26: FIC ([3]; S. haemolyticus SA7817)
0.50: FIC ([3]; S. haemolyticus SA7797) | FIC ([3]; S. haemolyticus SA7835)

KKWWRRVLKGLSSGPALSNV [MBI 21A10]
32: Peptide MIC ([1]; S. aureus, combination with Mupirocin)
